Laboratory results reported in patent US8012974B2, “Pyrrolopyrazinyl urea kinase inhibitors” (Roche Palo Alto LLC, priority 2008, dated 2011).

Target: T1, JAK3: Recombinant human kinase domain (810-1124) (Homo sapiens, UniProt P52333)
T1 construct: JAK3: Recombinant human kinase domain (810-1124); made in house
Test: Determination of IC50 of Janus Kinase (JAK) inhibition, JAK3, radioactive end-point assay with 33P-ATP
Type: biochemical
Conditions: no additive; 0.1 nM JAK3, ATP 1.5 uM, peptide 50 uM, 20 minutes; read-out: Ic50 h-jak3-sf21-c: no additive
Excerpt: Determination of IC50 of Janus Kinase (JAK) Inhibition:
Enzymes and peptide substrate used are described below: • JAK1: Recombinant human kinase domain (866-1154) from Invitrogen (Cat # PV4774) • JAK3: Recombinant human kinase domain (810-1124) made in house by Roche Palo Alto • JAK2: Recombinant human kinase domain (808-1132) from Millipore (Cat # 14-640) • Substrate: N-terminally biotinylated 14-mer peptide derived from activation loop of JAK1 with sequence of the peptide substrate: Biotin-[sequence]
Assay conditions used are described below: • Assay Buffer: JAK Kinase Buffer: 50 mM Hepes [pH 7.2], 10 mM MgCl2, 1 mM DTT, 1 mg/ml BSA. The assay is carried out in this buffer. • Assay Format The kinase activity of all three JAK kinases is measured using a radioactive, end-point assay and with trace amounts of ^33P-ATP. The assays are carried out in 96-well polypropylene plates. Experimental Method:
All concentrations are final in the reaction mixture and all incubations are carried at room temperature. […] 1 wash with water. • 6) Washed plates are dried in a 60° C. oven for between 1 to 2 hours. • 7) 70 ul of Microscint 20 scintillation fluid is added to each well of filter plates and after at least 30 minutes of incubation, radioactive counts are measured in a Perkinelmer microplate scintillation counter.

T1 sequence (P52333 810-1124): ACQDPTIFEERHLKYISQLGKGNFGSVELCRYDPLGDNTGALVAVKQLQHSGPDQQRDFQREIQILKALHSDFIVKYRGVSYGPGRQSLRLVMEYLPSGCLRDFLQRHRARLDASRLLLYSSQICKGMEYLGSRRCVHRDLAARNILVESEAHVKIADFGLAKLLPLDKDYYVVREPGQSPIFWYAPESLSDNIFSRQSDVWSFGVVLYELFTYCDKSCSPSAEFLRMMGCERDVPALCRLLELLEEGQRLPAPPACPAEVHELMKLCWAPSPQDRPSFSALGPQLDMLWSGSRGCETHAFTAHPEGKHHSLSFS

| IC50 [nM] | SMILES |
| --- | --- |
| 144 | O=C(NCCc1ccccc1)Nc1cnc2[nH]ccc2n1 [Compound I-10, 1-Phenethyl-3-(5H-pyrrolo[2,3-b]pyrazin-2-yl)-urea] |
| 326 | O=C(NCC1CCCCC1)Nc1cnc2[nH]ccc2n1 [Compound I-6, 1-Cyclohexylmethyl-3-(5H-pyrrolo[2,3-b]pyrazin-2-yl)-urea] |
